Measured values reported in US20230416257A1, “TOLL-LIKE RECEPTOR AGONIST” (priority 2020, published 2023).

Test system: antigen-specific T cells in the draining lymph nodes (LN) and spleen
Experiment: A/Vic murine vaccine model: cytokine secretion by antigen-stimulated T cells
Type: in vivo
Details: immunized mice, 5 days after tertiary immunization (day 33); comparison of UM-2014 and UM-1007; FIG. 4
Procedure: The adjuvanticity of liposomal formulations of UM-2014 (1 and 10 μg doses) was evaluated in an A/Vic murine vaccine model. Mice were intramuscularly immunized at day 0, 14, and 28, with blood collection at day 14 and day 28 (14dp1 and 14dp2, respectively). A tertiary immunization at day 28 was administered to assess cytokine production of antigen-specific T cells in the draining lymph nodes (LN) and spleen 5 days later (day 33).

Compound: CCCCCCCCCCCCCCCC(=O)OC[C@H](COCCOCCOCCOP(=O)(O)OCCN1CCC(Cn2c(O)nc3c(N)nc(O[C@@H](C)CCC)nc32)CC1)OC(=O)CCCCCCCCCCCCCCC [UM-1007]
- cytokine secretion by antigen-stimulated T cells from draining LNs and spleen: very similar
